Test results taken from patent publication US9518038B2, “Condensation product of theanine derivative and carboxylic acid coumarin derivative, its intermediate, preparation method and use thereof” (SHANDONG YINGDONG YINGHAO BIOTECHNOLOGY, INC., priority 2012, dated 2016).

Assays:
[1] = test system: human lung cancer cells A549; experiment: MTT growth inhibition, A549 cells; type: cell-based; details: 72 h after treatment, read-out: Drug concentration (IC50) at which 50% cancer cells survived
Excerpt: (§1) Cell lines and cell culture: human lung cancer cells A549 and H460, human breast cancer cells MCF-7 and MDA-MB-231, human gastric cancer cells BGC-823, human prostate cancer cells PC-3, human chronic leukemia cells K562, human lymphoma cells U937, human liver cancer cells SMMC7721 and HepG2, human colon cancer cells HT29, human pancreatic cancer cells PANC-1 and BxPC3, human cervical cancer Hela cell lines, human brain tumor cells Daoy, human neuroma cells D54 and human oral epidermoid cancer cells KBV200 line with strong drug resistance, mouse melanoma cells B16, and highly metastatic Lewis lung cancer cell lines were purchased from American Type Culture Collection of the U.S. These cells were cultured with DMEM and RPMI-1640 culture solutions separately.
(§2) The procedure was as follows:
(§3) (1) 0.25% trypsin was used to digest cancer cells in a logarithmic growth phase to prepare a single-cell suspension, the concentration of cells was adjusted to 5×10^4/mL, and the adjusted suspension was inoculated into a 96-well culture plate with 100 μl per well;
(§4) (2) The culture plate was transferred into a 37° C. incubator with a saturated humidity and 5% of CO2 and cultured for 24 h; the compounds and the intermediates thereof obtained in embodiments 1-7 and the compound as represented by formula (IIIa) or the positive control anti-cancer drug with the concentration of 1-1000 μM/L were added to enable the final concentration to be 0.1-1500 μM/L. Control wells (only added with 200 μl of cell suspension) and drug-free blank control wells (containing the solvent of 0.01% DMSO) were set, each group included 8 wells, and the plate was placed into the 37° C. incubator with saturated humidity and 5% of CO2 for culturing;
(§5) (3) The 96-well plate was taken out at 48 h and 72 h after dosing, the original culture medium was carefully removed by suction, 100 μl of serum-free DMEM culture medium and 10 μl of MTT (5 mg/mL) solution were added in each well. The plate was continuously cultured for another 4 h and then the culture was terminated;
(§6) (4) The supernatant in the wells was carefully removed by suction, each well was added with 150 μl of DMSO and shaked at room temperature for 10-15 min to fully dissolve crystals.
(§7) (5) Colorimetric analysis: the wavelength was selected as 570 nm, the light absorbance (A value) of each well was determined on the microplate reader and the results were recorded; the experiment was repeated for three times;
(§8) (6) the experimental results were calculated according to the following formula: relative survival rate=(A value of each experimental group/A value of cell control group)×100%
(§9) Calculation of median-effect concentration (IC50, namely the drug concentration at which the inhibition rate is 50%, also known as half inhibitory concentration):
(§10) IC50 of the detected component was calculated by using a regression equation.

[2] = test system: human lung cancer cells H460; experiment: MTT growth inhibition, H460 cells; type: cell-based; details: NCI-H460, 72 h after treatment, read-out: Drug concentration (IC50) at which 50% cancer cells survived
Excerpt: as §1, §2, §3, §4, §5, §6, §7, §8, §9, §10

[3] = test system: human lymphoma cells U937; experiment: MTT growth inhibition, U937 cells; type: cell-based; details: Homo sapiens, U-937, 72 h after treatment, read-out: Drug concentration (IC50) at which 50% cancer cells survived
Protocol: as §2, §5, §6, §7, §8, §10

[4] = test system: human colon cancer cells HT29; experiment: MTT growth inhibition, HT29 cells; type: cell-based; details: HT-29, 72 h after treatment, read-out: Drug concentration (IC50) at which 50% cancer cells survived
Excerpt: as §1, §2, §3, §4, §5, §6, §7, §8, §9, §10

[5] = test system: human liver cancer cells HepG2; experiment: MTT growth inhibition, HepG2 cells; type: cell-based; details: 72 h after treatment, read-out: Drug concentration (IC50) at which 50% cancer cells survived
Excerpt: as §1, §2, §3, §4, §5, §6, §7, §8, §9, §10

[6] = test system: Caski human cervical cancer cells; experiment: MTT growth inhibition, Caski cells; type: cell-based; details: Ca-Ski, 72 h after treatment, read-out: Drug concentration (IC50) at which 50% cancer cells survived
[7] = test system: human breast cancer cells MCF-7 xenograft; experiment: In-vivo growth of MCF-7 xenografts in nude mice; parameters: species or system BALB/c nude mice; details: Mus musculus, MCF7, ip, vs DMSO solvent control, read-out: Curative effect (inhibition rate %) of tumor weight; for inhibition in vivo at 60 mg/kg: 60 mg/kg intraperitoneal once a day; for inhibition in vivo at 90 mg/kg: 90 mg/kg intraperitoneal once a day
Protocol: RPMI1640 and DMEM culture solutions: Hyclone Company; inactivated fetal bovine serum: Hyclone Company, preserved at −20° C.; trypsin: Amersco Company; and 0.4% trypan blue: Sigma Company;
(3) Observation of growth of tumors in nude mice: the activities (including food intake, traits of urine and stool, mental state and the like) of the nude mice and the tumor growth time and growth situation of the transplanted tumors were observed every day, the body weight and the size of the tumors were measured once every 2-3 days. The long diameter a and the short diameter b (mm) of each tumor were measured by a vernier caliper to calculate the volume, wherein the volume V=π1/2·ab^2 (mm^3);
(4) sacrifice of animals: the mice were anesthetized and photoed after treatment experiments; the nude mice were sacrificed by breaking neck, the tumor tissues were stripped under sterile conditions and the weight of the tumors was weighed; and the effects of the drugs on pathology and toxicity of the various organs and tissues were detected.

[8] = test system: VEGFR1; experiment: Western Blotting, VEGFR1 level; type: cell-based; details: human liver cancer cells, Lewis lung cancer cells and other cancer cell lines and tumor tissues, read-out: Effective concentration (IC50) for inhibition of VEGFR1
Excerpt: (§11) Antibodies: primary antibodies of VEGFR, EGFR, c-Met, K-Ras, H-Ras, Akt, NF-κB, Cyclin D1, ER-alpha, Dvl-1, Dvl-2, Dvl-3, MMP-9, MMP2, β-catenin, Bcl-2, Bax, p53, p21, E-cadherin and Caspase3 protein, purchased from American Cell Signaling Technology Company and Santa Cruz Technology Company; and H3 acetylation, H4 acetylation and HDAC (HDAC3, HDAC4 and the like) Antibody Sample Kits, purchased from Cell Signaling Technology Company of the U.S.
(§12) (3) polyacrylamide gel electrophoresis (SDS-PAGE): an equal amount of protein lysate sample was used to separate protein, film transfer, and blocking, treated with appropriate primary antibodies and secondary antibodies in sequence, and the film was washed, then the color was developed with ECL kit, and a blot protein band was detected by exposure of an X-ray film; and a Gel-Pro Analyzer was used for quantitative analysis of gray degree, optical density value of the control group and the drug treatment group in various concentration were respectively compared with that of internal reference, the obtained ratios were respectively compared with the control group, and the protein expression level was semi-quantified.

[9] = test system: VEGFR2; experiment: Western Blotting, VEGFR2 level; type: cell-based; details: human liver cancer cells, Lewis lung cancer cells and other cancer cell lines and tumor tissues, read-out: Effective concentration (IC50) for inhibition of VEGFR2
Excerpt: as §11, §12

SMILES	IC50 [1] [µM]	IC50 [2] [µM]	IC50 [3] [µM]	IC50 [4] [µM]	IC50 [5] [µM]	IC50 [6] [µM]	inhibition in vivo at 60 mg/kg [7] [%]	inhibition in vivo at 90 mg/kg [7] [%]	IC50 [8] [µM]	IC50 [9] [µM]
CCNC(=O)CCC(NC(=O)c1cc2cc(F)ccc2oc1=O)C(=O)OCC (stereo in doubt) [Compound Ie, (R)-2-(6-F-2-oxo-2H-benzopyran-3-carboxamido)-5-ethylamino-5-oxo-pentanoic acid ethyl ester]	141	100	126	240	230	230	66.8	69.8	< 110	< 90
CCNC(=O)CCC(NC(=O)c1cc2cc([N+](=O)[O-])ccc2oc1=O)C(=O)OCC (stereo in doubt) [Compound If, (R)-2-(6-nitro-2-oxo-2H-benzopyran-3-carboxamido)-5-ethylamino-5-oxo-pentanoic acid ethyl ester]	122	100	121	153	130	120	68.6	72.6	< 90	< 90
CCNC(=O)CC[C@H](N)C(=O)OC [Compound IIa, theanine methyl ester]	650 ± 30	500 ± 40	350	250	600	320	39.8	41.3		
CCNC(=O)CC[C@H](N)C(=O)OCC [Compound IIb, theanine ethyl ester]	500 ± 30	400 ± 10	400	600	300	300	43.2	46.8		
CCNC(=O)CCC(NC(=O)c1cc2ccccc2oc1=O)C(=O)OC (stereo not drawn) [Compound Ia, methyl 5-ethylamino-5-oxo-2-(2-oxo-2H-benzopyran-3-carboxamido)pentanoate]	300 ± 60	230	56 ± 10	62	250	210	50.1	61.3	< 125	< 125
CCNC(=O)CCC(NC(=O)c1cc2ccccc2oc1=O)C(=O)OCC (stereo not drawn) [Compound Ib, ethyl 5-ethylamino-5-oxo-2-(2-oxo-2H-benzopyran-3-carboxamido)pentanoate]	125 ± 50	113	90	105	225	116	52.6	63.8	< 120	< 120
CCNC(=O)CC[C@@H](NC(=O)c1cc2cc(Cl)ccc2oc1=O)C(=O)OCC [Compound Ic, (R)-2-(6-CI-2-oxo-2H-benzopyran-3-carboxamido)-5-ethylamino-5-oxo-pentanoic acid ethyl ester]	128 ± 60	106 ± 50	52	105	93	86	58.6	68.8	< 100	< 100
CCNC(=O)CC[C@@H](NC(=O)c1cc2cc(Br)ccc2oc1=O)C(=O)OCC [Compound Id, (R)-2-(6-Br-2-oxo-2H-benzopyran-3-carboxamido)-5-ethylamino-5-oxo-pentanoic acid ethyl ester]	139 ± 50	101	124	45	125	101	56.6	66.9	< 100	< 100
CCNC(=O)CC[C@@H](NC(=O)c1cc2cc(Cl)cc(Cl)c2oc1=O)C(=O)OCC [Compound Ig, (R)-2-(6,8-dichloro-2-oxo-2H-benzopyran-3-carboxamido)-5-ethylamino-5-oxo-pentanoic ethyl ester]	45	93	38	99	46	36	65.7	76.9	< 100	< 100
CCNC(=O)CC[C@@H](NC(=O)c1cc2cc(Br)cc(Br)c2oc1=O)C(=O)OCC [Compound Ih, (R)-2-(6,8-dibromo-2-oxo-2H-benzopyran-3-carboxamido)-5-ethylamino-5-oxo-pentanoic ethyl ester]	56	109	57	108	56	53	58.9	75.9	< 100	< 100
